Laboratory results published in paper PMC4893628, “Chalcone-based Selective Inhibitors of a C4 Plant Key Enzyme as Novel Potential Herbicides” (Scientific Reports, 2016).
Read-outs that look alike come from different tables or passages of the source.

Legend:
[1] = target: T1, wild-type C4 PEPC from F. trinervia (Flaveria trinervia, UniProt P30694); assay: Isothermal titration calorimetry, wild-type C4 PEPC; assay type: binding
T1 construct: the full-length ppcA gene of PEPC from F. trinervia (EMBL-Bank X61304); made in house; host or cells: Escherichia coli BL21(DE3)
T1 sequence (P30694 1-966): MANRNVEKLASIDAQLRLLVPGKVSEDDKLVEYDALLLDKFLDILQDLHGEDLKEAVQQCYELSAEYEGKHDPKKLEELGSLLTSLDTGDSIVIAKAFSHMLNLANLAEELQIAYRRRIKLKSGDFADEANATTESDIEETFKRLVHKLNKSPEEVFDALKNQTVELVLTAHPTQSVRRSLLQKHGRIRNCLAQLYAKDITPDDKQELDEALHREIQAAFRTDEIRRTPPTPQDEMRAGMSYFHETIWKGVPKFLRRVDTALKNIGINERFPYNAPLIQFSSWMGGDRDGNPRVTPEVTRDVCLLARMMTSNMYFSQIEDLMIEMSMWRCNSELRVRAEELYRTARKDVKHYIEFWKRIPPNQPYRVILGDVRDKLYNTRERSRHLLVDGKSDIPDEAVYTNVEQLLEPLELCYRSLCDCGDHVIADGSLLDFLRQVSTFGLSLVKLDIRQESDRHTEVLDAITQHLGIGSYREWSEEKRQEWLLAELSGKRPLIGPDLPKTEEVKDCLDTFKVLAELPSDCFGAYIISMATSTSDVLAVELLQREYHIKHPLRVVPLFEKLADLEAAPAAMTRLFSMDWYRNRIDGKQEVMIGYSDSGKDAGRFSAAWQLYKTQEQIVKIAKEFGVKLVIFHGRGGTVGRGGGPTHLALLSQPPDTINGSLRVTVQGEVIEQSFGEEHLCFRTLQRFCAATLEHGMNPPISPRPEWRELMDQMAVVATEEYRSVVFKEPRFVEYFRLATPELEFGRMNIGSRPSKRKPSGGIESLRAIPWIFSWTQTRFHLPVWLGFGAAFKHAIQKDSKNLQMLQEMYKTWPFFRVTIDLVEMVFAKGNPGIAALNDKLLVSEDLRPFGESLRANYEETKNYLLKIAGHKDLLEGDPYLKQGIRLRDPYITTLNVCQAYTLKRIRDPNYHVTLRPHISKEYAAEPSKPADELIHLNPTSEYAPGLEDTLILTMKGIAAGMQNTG
Description: (§1) The binding affinities between small molecule compounds and PEPC enzymes were measured using a MicroCal iTC200 calorimeter (GE Healthcare). 18 injections (2 μl each) of 200 μM compound were injected into a sample cell containing 20 uM PEPC at 25 °C. The buffer of the compounds and the enzymes contained 50 mM Tris/HCl pH 7.5, 150 mM NaCl, 10 mM MgCl2. The data were analyzed with one-site-binding fitting using Origin software (MicroCal Inc.) to calculate the dissociation constant (Kd) of the small molecule inhibitors.

[2] = target: C4 PEPC mutant G884R (Flaveria trinervia, UniProt P30694, G884R); assay: Isothermal titration calorimetry, mutant G884R; assay type: binding
Description: as §1

[3] = tested on: B. napus; assay: Chlorophyll fluorescence measurements, B. napus; assay type: in vivo, Brassica napus; conditions: 2 mM
[4] = tested on: A. retroflexus; assay: Chlorophyll fluorescence measurements, A. retroflexus leaf discs; assay type: in vivo, Amaranthus retroflexus; conditions: 2 mM
Description: from a fixed distance at 90° view angle using the camera Canon EOS 70D equipped with a Canon EF 14 mm/2.8 L II USM lens. Leaf area of single leaves was measured using the ImageJ software31, by drawing the leaf contours using a drawing tablet (Cintiq 22HD, Wacom Europe GmbH, Krefeld, Germany). Conversion of pixel to cm was achieved by using a target of known size inside the image. Six days after the treatment, half of the plants were harvested. Leaf area was assessed using a leaf area meter (LI3100C Area Meter, LI-Cor, Lincoln, Nebraska, USA) and samples were oven-dried at 65°C for seven days to obtain dry weight . Thirteen days after the treatment, this procedure was repeated with the second half of plants.
Chlorophyll fluorescence measurements
For assessment of photosynthetic parameters, A. retroflexus plants were grown under the abovementioned conditions until the two-leaves growth stage. 6 mm leaf discs were cut out of the second leaf and immediately placed into 96-well-plates filled with 300 µL 0.125 % Hoagland’s solution with 1 mM MES-KOH (MES-monohydrate, Merck, Darmstadt, Germany) buffered to a pH of 6.5. The treatment solution contained 1.6 % (v/v) DMSO, 0.1 % (v/v) Tween® 20 and 2',3',4',3,4-Pentahydroxychalcone at a concentration of 2 mM. The control treatment contained 1.6 % (v/v) DMSO, 0.1 % (v/v) Tween® 20. Each leaf disc was treated with 1.5 µL solution placed on top of the leaf discs. Plates were sealed with Parafilm and placed into a climate cabinet with 12h/12h day/night-length and a temperature of 22°C at a light intensity of 130 µmol m-2 s-1. 96 hours after treatment, chlorophyll fluorescence measurements were performed on leaf discs using an Imaging PAM M-Series fluorescence camera (Heinz Walz GmbH, Effeltrich, Germany). Leaf discs were dark adapted for 30 minutes, minimum and maximum chlorophyll fluorescence were obtained and leaf discs were illuminated for 30 minutes

[5] = tested on: A. retroflexus; assay: Leaf gas exchange measurements, A. retroflexus; assay type: in vivo, Amaranthus retroflexus
Description: (§2) CO2-response curves were obtained on A. retroflexus and B. napus using a LI-6400XT portable photosynthesis system equipped with a fluorescence head and a leaf chamber size of 2 cm^2 (LI-COR, Lincoln, NE, USA) at a photon flux density of 1500 μmol m^−2 s^−1 and at 25 °C leaf temperature. Plants were grown at the research greenhouse of the IBG-2 Institute of Plant Sciences at Forschungszentrum Jülich, Germany (50°55′20″N 06°21′30″E), at a day/night length of 16 h/8 h, at an average day/night temperature of 23 °C/17 °C, relative humidity of 55%, and light intensity of 170 PAR. Plants were treated as described above at the three-leaf stage. Measurements were performed on the third leaf before treatment and one day after treatment. Each treatment was repeated four times. Information on statistical analysis is given in the Supplementary Information.

[6] = tested on: B. napus; assay: Leaf gas exchange measurements, B. napus; assay type: in vivo, Brassica napus
Description: as §2

[7] = tested on: human breast cancer cells; parameters: method as in PMID 11720850; conditions: higher; cited from earlier work
[8] = estimate valid for both measurement days (before and one day after treatment)

C4 PEPC mutant G884R, sequence (P30694 whole entry G884R): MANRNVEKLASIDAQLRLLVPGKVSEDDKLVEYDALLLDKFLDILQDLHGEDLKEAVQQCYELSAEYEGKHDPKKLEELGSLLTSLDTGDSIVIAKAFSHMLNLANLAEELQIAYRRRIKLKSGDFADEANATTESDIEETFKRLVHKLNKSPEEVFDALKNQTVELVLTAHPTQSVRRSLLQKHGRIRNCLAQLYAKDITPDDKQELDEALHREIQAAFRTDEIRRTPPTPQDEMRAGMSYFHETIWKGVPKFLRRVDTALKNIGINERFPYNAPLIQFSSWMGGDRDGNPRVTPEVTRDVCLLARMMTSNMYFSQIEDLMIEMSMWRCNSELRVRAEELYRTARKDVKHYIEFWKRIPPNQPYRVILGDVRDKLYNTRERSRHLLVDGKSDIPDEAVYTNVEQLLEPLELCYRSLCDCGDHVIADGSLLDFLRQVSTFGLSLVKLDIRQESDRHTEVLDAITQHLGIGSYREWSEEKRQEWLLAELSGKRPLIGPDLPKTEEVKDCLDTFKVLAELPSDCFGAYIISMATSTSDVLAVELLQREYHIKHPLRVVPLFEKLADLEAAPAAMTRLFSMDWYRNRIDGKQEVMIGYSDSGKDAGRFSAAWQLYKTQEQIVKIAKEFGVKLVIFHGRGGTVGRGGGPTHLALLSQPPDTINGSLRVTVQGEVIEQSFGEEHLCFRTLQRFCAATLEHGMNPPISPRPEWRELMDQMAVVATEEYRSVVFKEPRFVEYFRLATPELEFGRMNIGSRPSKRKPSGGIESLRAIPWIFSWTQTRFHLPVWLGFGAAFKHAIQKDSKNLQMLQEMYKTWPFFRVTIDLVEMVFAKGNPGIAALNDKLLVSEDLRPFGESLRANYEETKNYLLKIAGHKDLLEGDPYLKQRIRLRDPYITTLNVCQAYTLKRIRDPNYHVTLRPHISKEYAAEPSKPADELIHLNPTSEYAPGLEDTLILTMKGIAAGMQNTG

SMILES: O=C(/C=C/c1cc(O)c(O)c(O)c1)c1ccc(O)cc1O [Compound 9, 2′,4′,3,4,5-Pentahydroxychalcone]
- Kd ([1]; ITC, wild-type (wtFt), no aspartate, read-out: Kd): 460 nM
- Kd [2]: 4800 nM

SMILES: O=C(/C=C/c1ccc(O)c(O)c1)c1ccc(O)cc1O [Compound 8, 2′,4′,3,4-Tetrahydroxy-chalcone]
- Kd [1]: 380 nM
- Kd [2]: 8600 nM

SMILES: O=C(/C=C/c1ccc(O)c(O)c1)c1ccc(O)c(O)c1O [Compound 12, 2′,3′,4′,3,4-Pentahydroxy-chalcone]
- photosynthetic parameters [3]: no effect
- effective quantum yield of photosystem II [4]: increased
- maximum electron transfer rate [4]: increased
- non-photochemical quenching [4]: reduced
- Kd [1]: 260 nM
- weaker Kd at 0.5 mM aspartate in comparison to no aspartate ([1]; ITC): ~ 5 fold
- Kd [2]: 5400 nM
- Maximal PEP carboxylation rate (Vpmax) ([5]; Before treatment): 36.5 μmol m^−2 s^−1
- Maximal PEP carboxylation rate (Vpmax) ([5]; Before treatment, listed as Okanin): 36.5 (3.96) μmol m^−2 s^−1
- Maximal PEP carboxylation rate (Vpmax) ([5]; One day after treatment): 17.2 μmol m^−2 s^−1
- Maximal PEP carboxylation rate (Vpmax) ([5]; One day after treatment, listed as Okanin): 17.2 (2.43) μmol m^−2 s^−1
- decrease of Vpmax ([5]; one day after treatment): more than 50%
- photosynthetic parameters ([6]; after treatment): no changes
- maximal electron transport rate (Jmax) [6, 8]: 144.2 (3.77)
- maximal rubisco carboxylation rate (Vcmax) [6, 8]: 81.5 (3.33)
- mitochondrial respiration (Rd) [6, 8]: 0.9 (0.66)

SMILES: O=C(/C=C/c1ccccc1)c1ccc(O)c(O)c1O [Compound 10, 2′,3′,4′-Trihydroxychalcone]
- antiproliferative IC50 relative to IC50 for inhibition of C4 PEPC [7]: ~ 5 fold
